Assay results reported in paper PMC10487708, “Chlorin E6-Curcumin-Mediated Photodynamic Therapy Promotes an Anti-Photoaging Effect in UVB-Irradiated Fibroblasts” (International Journal of Molecular Sciences, 2023).

Experiments:
[1] = MTT cytotoxicity of Ce6-curcumin derivative PDT in BALB/c 3T3 cells; assay type: cell-based, mouse; settings: mouse, BALB/c 3T3 cells; 3 h treatment, 660 nm 20 J/cm^2, MTT after 24 h, tested 200 to 6400 nM; read-out: IC50 cytotoxicity against BALB/c 3T3 cells
Procedure: MTT assay was used to evaluate viability after 24 h. IC50 values were calculated using GraphPad Prism 5 software.
Hs68 and BALB/c 3T3 cell viability was measured using a 3-[4,5-dimethylthylthiazol-2-yl]-2,5 diphenyl tetrazolium bromide (MTT) assay. The cells were cultured in 24-well plates at a density of 3 × 10^4 cells per well or BALB/c 3T3 cells at a density of 1 × 10^4 cells per well. […] The Hs68 cells were then exposed to LED light (660 nm; 89 W/m^2; 20 J/cm^2) for 37 min 27 s and incubated for 3 h. […] The cells were washed and treated with MTT, after which the plates were incubated at 37 °C in the dark for 2 h. After the formation of formazan, 100 µL of DMSO was added, and the absorbance was measured at 570 nm using a microtiter plate reader (Thermo-scientific, Skanlt software 5.0, Waltham, MA, USA)

[2] = ORAC (oxygen radical absorbance capacity) assay; assay type: biochemical; settings: Trolox equivalent
Procedure: The ORAC assay is based on the scavenging of peroxyl radicals generated by 2,2′-azobis(2-methylpropioamidine) dihydrochloride (AAPH), which prevents the degradation of the fluorescein probe. The ORAC values were calculated as the area under the curve (AUC) and expressed as µM of Trolox equivalent (TE).

COX-2, TNF-α, iNOS = assay: Western blot of COX-2, TNF-α and iNOS in UVB-induced 3T3 fibroblasts; assay type: cell-based, mouse; settings: for UVB-upregulated COX-2 and TNF-α protein levels: fibroblast cells
From the text: We further investigated the expressions of COX-2, TNF-α, and MMP-1 to ascertain the effect of UVB on the expressions of NF-κB and AP-1-dependent genes. These genes have an NF-κB and AP-1 functional binding site in their promoter regions and are linked to inflammation.
Figure 10 Effect of Ce6-curcumin derivatives-PDT on UVB-induced COX-2 and iNOS expressions. […] Representative bars are expressed as mean only.
The cells were lysed with RIPA lysis buffer containing protease inhibitor cocktails (Gen-DEPOT, Katy, TX, USA). Cell lysates were vortexed and centrifuged at 13,000 rpm for 15 min at 4 °C. Protein concentration was determined using the Bradford protein assay kit, and the same amount of protein was separated by SDS-PAGE gel. Then, proteins were transferred to a polyvinylidene fluoride (PVDF) membrane. Further, the membranes were blocked with a blocking solution containing 5% skim milk in Tris-buffered saline containing Tween 20 (TBST) for 1 h and incubated overnight with the primary antibody diluted in 5% skim milk in TBST at 4 °C. Then, the membrane was rinsed with TBST for 30 min and incubated with horseradish peroxidase-conjugated secondary antibodies in a blocking solution for 1 h. All bands were visualized by using an enhanced chemiluminescence (ECL) kit (Pierce, Rockford, IL, USA) under a luminescent image analyzer (Amersham, GE Healthcare, Chicago, IL, USA). The primary antibodies against MMP-1 were obtained from Thermo Fischer Scientific Inc. (NYSE: TMO). Antibodies directed against p-p65, p65, p-p38, p38, p-ERK, ERK, p-c-JUN, and c-JUN were purchased from Cell Signaling Technology Inc. (Beverley, MA, USA). COX-2 and β-Actin antibodies were from Santa Cruz Biotechnology (Santa Cruz, CA, USA), while TNF-α antibodies were procured from Novus Biologicals, Inc. (Centennial, CO, USA).

[3] = test system: UVB-irradiated BALB/c 3T3 cells; assay: MTT cell viability of UVB-irradiated BALB/c 3T3 cells; assay type: cell-based, mouse; settings: UVB 200 mJ/cm^2, 0.2–8 μM, 24 h
Procedure: To investigate the proper dose of UVB irradiation, BALB/c 3T3 cells were exposed to different doses of UVB (50, 100, 200, 800, 1600 mJ/cm^2) for 24 h. […] Therefore, the dose of 200 mJ/cm^2 was used in the subsequent in vitro studies to evaluate the protective effect of Ce6-PDT. The effect of Ce6-curcumin derivatives on BALB/c 3T3 cell viability was evaluated with the MTT assay.
Figure 6 The effect of Ce6-curcumin derivatives on UVB-irradiated BALB/c 3T3 cells. (A) Cell viability of BALB/c 3T3 cells irradiated with different doses of UVB (50, 100, 200, 800, 1600 mJ/cm^2) for 24 h. […] Data were represented as mean ± SD from at least three independent experiments and analyzed by one-way ANOVA with Tukey’s post hoc test, * p < 0.01, compared with UVB-treated groups.
BALB/c 3T3 cells were seeded at a density of 1 × 10^4 cells/well in 96-well plates for 24 h. The culture medium was replaced with phosphate-buffered saline (PBS), and the cells were pretreated with UVB (200 mJ/cm^2) before being incubated for 24 h incubation in an FBS-free medium containing different concentrations of Ce6-curcumin derivatives. Cell viability was measured by MTT assay.

[4] = test system: collagen synthesis in Hs68 cells; assay: Sircol collagen assay in UVB-irradiated Hs68 cells; assay type: cell-based, human; settings: 30–40 nM, UVB 200 mJ/cm^2, LED irradiated
Procedure: The amount of collagen was measured through the Sircol collagen assay kit (Figure 8).
Each scale value is shown as the mean only.
Following this, 1 mL Sirius red dye, an anionic dye that reacts specifically with the basic side chain groups of collagens under the assay conditions, was added to 300 µL of cell culture medium supernatant and incubated with gentle rotation for 30 min at room temperature. After centrifugation, the pellet was washed with ice-cold acid-salt wash reagent released in alkali reagent, and the absorbance at 570 nm was measured using an ELISA reader (Sunrise, Tecan, Männedorf, Switzerland). The amount of collagen was calculated based on a standard curve obtained with the standard bovine type I collagen supplied with the kit.

Structure (SMILES) | IC50 [1] [nM] | ORAC LED Condition (TE, μM) ([2]; LED 20 J/cm^2, 1 μM compound) [µM] | ORAC LED Condition (TE, μM) ([2]; LED 20 J/cm^2, 10 μM compound) [µM] | ORAC Dark Condition (TE, μM) ([2]; 1 μM compound) [µM] | ORAC Dark Condition (TE, μM) ([2]; 10 μM compound) [µM] | expression levels of iNOS and COX-2 (COX-2, TNF-α, iNOS; 200 nM, PDT, UVB-induced 3T3) | UVB-upregulated COX-2 and TNF-α protein levels (COX-2, TNF-α, iNOS; 150 and 200 μΜ) | concentration from which cytotoxicity was shown in UVB-irradiated BALB/c 3T3 cells [3] [µM] | collagen synthesis [4] | UVB-upregulated COX-2 and TNF-α protein levels (COX-2, TNF-α, iNOS; 75 and 100 μΜ) | cell viability of UVB-irradiated BALB/c 3T3 cells [3]
C=Cc1c(C)c2cc3nc(c(CC(=O)OC)c4[nH]c(cc5nc(cc1[nH]2)C(C)=C5CC)c(C)c4C(=O)NCCCOCCOCCOCCCNC(=O)CCCC(=O)Oc1ccc(/C=C/C(=O)CC(=O)/C=C/c2ccc(O)c(OC)c2)cc1OC)C(CCC(=O)OC)C3C (stereo not shown) [Ce6-diPEG-curcumin] | 830 | 0.85 | 27.98 | 20.85 | 30.32 | below those seen in the normal control | downregulated these increases | ≥ 4 |  |  | 
C=Cc1c(C)c2cc3nc(c(CC(=O)OC)c4[nH]c(cc5nc(cc1[nH]2)C(C)=C5CC)c(C)c4C(=O)NCCCNC(=O)CCCC(=O)Oc1ccc(/C=C/C(=O)CC(=O)/C=C/c2ccc(O)c(OC)c2)cc1OC)C(CCC(=O)OC)C3C (stereo not shown) [Ce6-propane-curcumin] | 2040 | 2.78 | 30.66 | 20.11 | 26.83 |  |  |  | increase in collagen synthesis in a dose-dependent manner | downregulated these increases | not affected
